In patent US6933260B2, “Avermectin B1 derivatives having an aminosulfonyloxy substituent in the 4′-position” (Syngenta Crop Protection, Inc., priority 2001, dated 2005):

Columns and labels:
Type in all cases: in vivo
Plutella xylostella = test: Action against Plutella xylostella caterpillars (spray on cabbage plants); conditions: 72 h, 12.5 ppm spray, caterpillars in the first stage, 3 days, read-out: percentage reduction in population and percentage reduction in feeding damage (% activity)
Description: Young cabbage plants are sprayed with an aqueous emulsion spray mixture comprising 12.5 ppm of test compound. After the spray-coating has dried, the cabbage plants are populated with 10 caterpillars of Plutella xylostella in the first stage and placed in a plastics container. Evaluation is made 3 days later. The percentage reduction in population and the percentage reduction in feeding damage (% activity) are determined by comparing the number of dead caterpillars and the feeding damage on the treated plants with that on the untreated plants.

Spodoptera littoralis = test: Action against Spodoptera littoralis (foliar spray on soybean plants); conditions: 72 h, 12.5 ppm spray, caterpillars in the first stage, 3 days, read-out: percentage reduction in population and percentage reduction in feeding damage (% activity)
Description: Young soybean plants are sprayed with an aqueous emulsion spray mixture comprising 12.5 ppm of test compound and, after the spray-coating has dried, the plants are populated with 10 caterpillars of Spodoptera littoralis in the first stage and then placed in a plastics container. 3 days later, the percentage reduction in population and the percentage reduction in feeding damage (% activity) are determined by comparing the number of dead caterpillars and the feeding damage on the treated plants with that on untreated plants.

Diabrotica balteata = test: Action against Diabrotica balteata (spray on maize seedlings); conditions: 144 h, 12.5 ppm spray, larvae in the second stage, 6 days, read-out: percentage reduction in population (% activity)
Description: Maize seedlings are sprayed with an aqueous emulsion spray mixture comprising 12.5 ppm of the test compound and, after the spray-coating has dried, the maize seedlings are populated with 10 Diabrotica balteata larvae in the second stage and then placed in a plastics container. 6 days later, the percentage reduction in population (% activity) is determined by comparing the number of dead larvae on the treated plants with that on untreated plants.

Tetranychus urticae = test: Action against Tetranychus urticae (spray on bean plants); conditions: 144 h, 12.5 ppm spray, mixed population, 6 days at 25° C., read-out: percentage reduction in population (% activity)
Description: Young bean plants are populated with a mixed population of Tetranychus urticae and sprayed one day later with an aqueous emulsion spray mixture comprising 12.5 ppm of test compound. The plants are incubated for 6 days at 25° C. and subsequently evaluated. The percentage reduction in population (% activity) is determined by comparing the number of dead eggs, larvae and adults on the treated plants with that on untreated plants.

Measured: inhibition at 12.5 ppm

CCC(C)[C@H]1O[C@]2(C=C[C@@H]1C)C[C@@H]1C[C@@H](C/C=C(\C)[C@@H](O[C@H]3C[C@H](OC)[C@@H](O[C@H]4C[C@H](OC)[C@@H](OS(=O)(=O)NC)[C@H](C)O4)[C@H](C)O3)[C@@H](C)/C=C/C=C3\CO[C@@H]4[C@H](O)C(C)=C[C@@H](C(=O)O1)[C@]34O)O2 (some centres unmarked) [P.2, 4″-methylaminosulfonyloxy-avermectin B1]
> 80%: all assays above

CCC(C)[C@H]1O[C@]2(C=C[C@@H]1C)C[C@@H]1C[C@@H](C/C=C(\C)[C@@H](O[C@H]3C[C@H](OC)[C@@H](O[C@H]4C[C@H](OC)[C@@H](OS(=O)(=O)N(C)C)[C@H](C)O4)[C@H](C)O3)[C@@H](C)/C=C/C=C3\CO[C@@H]4[C@H](O)C(C)=C[C@@H](C(=O)O1)[C@]34O)O2 (some centres unmarked) [P.7, 4″-dimethylaminosulfonyloxy-avermectin B1]
> 80%: Plutella xylostella | Diabrotica balteata | Tetranychus urticae

CCC(C)[C@H]1O[C@]2(C=C[C@@H]1C)C[C@@H]1C[C@@H](C/C=C(\C)[C@@H](O[C@H]3C[C@H](OC)[C@@H](O[C@H]4C[C@H](OC)[C@@H](OS(N)(=O)=O)[C@H](C)O4)[C@H](C)O3)[C@@H](C)/C=C/C=C3\CO[C@@H]4[C@H](O)C(C)=C[C@@H](C(=O)O1)[C@]34O)O2 (some centres unmarked) [P.1, 4″-sulfamoyloxy-avermectin B1]
> 80%: all assays above

CCNS(=O)(=O)O[C@H]1[C@H](C)O[C@@H](O[C@H]2[C@H](C)O[C@@H](O[C@@H]3/C(C)=C/C[C@@H]4C[C@@H](C[C@]5(C=C[C@H](C)[C@@H](C(C)CC)O5)O4)OC(=O)[C@@H]4C=C(C)[C@@H](O)[C@H]5OC/C(=C\C=C\[C@@H]3C)[C@]54O)C[C@@H]2OC)C[C@@H]1OC (some centres unmarked) [P.3, 4″-ethylaminosulfonyloxy-avermectin B1]
> 80%: Plutella xylostella | Diabrotica balteata | Tetranychus urticae
